Measurements published in ChEMBL document CHEMBL1201862, “PubChem BioAssay data set” (2004).
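Growth conditions: 96-well plates. Treatment: test compound, 48 hours, 5 concentrations. Analysis: linear interpolation between bracketing concentrations; unreached endpoints set to highest concentration. GI50: concentration for 50% inhibition of growth.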 Calls of active or inactive are those of the source. No stated cut-off is given here; in the data, active = GI50 up to about 1.1 µM and inactive = higher.

Tests used:
Test in all cases: NCI anticancer screen, dose series, 48 h
A549 = system: A549
ACHN = system: ACHN
CCRF-CEM = system: CCRF-CEM
COLO 205 = system: COLO 205
DU-145 = system: DU-145
EKVX = system: EKVX
HT-29 = system: HT-29
NCI/ADR-RES = system: NCI/ADR-RES
OVCAR-5 = system: OVCAR-5
OVCAR-8 = system: OVCAR-8
SF-268 = system: SF-268
SK-MEL-2 = system: SK-MEL-2
T47D = system: T47D
U-251 = system: U-251
UACC-62 = system: UACC-62
NCI-H226 = system: NCI-H226
NCI-H460 = system: NCI-H460
PC-3 = system: PC-3
RXF 393 = system: RXF 393
SW-620 = system: SW-620

SMILES	GI50 (A549)	GI50 (ACHN)	GI50 (CCRF-CEM)	GI50 (COLO 205)	GI50 (DU-145)	GI50 (EKVX)	GI50 (HT-29)	GI50 (NCI/ADR-RES)	GI50 (OVCAR-5)	GI50 (OVCAR-8)	GI50 (SF-268)	GI50 (SK-MEL-2)	GI50 (T47D)	GI50 (U-251)	GI50 (UACC-62)	GI50 (NCI-H226)	GI50 (NCI-H460)	GI50 (PC-3)	GI50 (RXF 393)	GI50 (SW-620)
O=C(O)CCC(NC(=O)c1ccc(Nc2nc3ccccc3nc2C(=O)O)cc1)C(=O)O (stereo unspecified)	> 100 µM (inactive)	> 100 µM (inactive)	> 100 µM (inactive)	> 100 µM (inactive)	> 100 µM (inactive)	> 100 µM (inactive)	> 100 µM (inactive)	> 100 µM (inactive)	> 100 µM (inactive)	> 100 µM (inactive)	> 100 µM (inactive)	> 100 µM (inactive)	> 100 µM (inactive)	> 100 µM (inactive)	> 100 µM (inactive)					
NC1=NC(=O)[C@H](Cc2c[nH]c3ccccc23)N1C(=O)OCc1ccccc1		> 100 µM (inactive)		> 100 µM (inactive)	93.8 µM (inactive)	45.3 µM (inactive)	> 100 µM (inactive)	> 100 µM (inactive)	> 100 µM (inactive)	46 µM (inactive)	73.8 µM (inactive)	> 100 µM (inactive)		69.7 µM (inactive)	53.8 µM (inactive)	84.5 µM (inactive)	93.8 µM (inactive)	46 µM (inactive)	45.2 µM (inactive)	> 100 µM (inactive)
Cn1nc2ccc3nccc(N4CCN(CCO)CC4)c3c2n1	> 100 µM (inactive)	> 100 µM (inactive)	21.3 µM (inactive)	> 100 µM (inactive)	> 100 µM (inactive)		> 100 µM (inactive)		> 100 µM (inactive)	> 100 µM (inactive)	> 100 µM (inactive)	> 100 µM (inactive)	42.3 µM (inactive)	> 100 µM (inactive)	> 100 µM (inactive)	> 100 µM (inactive)	> 100 µM (inactive)	19.3 µM (inactive)	> 100 µM (inactive)	59.4 µM (inactive)
COC(=O)C1CCC(=O)N1C(c1cc(OC)c(OC)c(OC)c1)c1cc(OC)c(OC)c(OC)c1 (stereo unspecified)	> 100 µM (inactive)	> 100 µM (inactive)			> 100 µM (inactive)	> 100 µM (inactive)	> 100 µM (inactive)		> 100 µM (inactive)	> 100 µM (inactive)	> 100 µM (inactive)	> 100 µM (inactive)	> 100 µM (inactive)	> 100 µM (inactive)	> 100 µM (inactive)		> 100 µM (inactive)	> 100 µM (inactive)		> 100 µM (inactive)
Cc1ccc(-c2cn3c(nc4ccccc43)c(/C=C/c3ccco3)n2)cc1	> 100 µM (inactive)	> 100 µM (inactive)		61.7 µM (inactive)	> 100 µM (inactive)		> 100 µM (inactive)	> 100 µM (inactive)	> 100 µM (inactive)		59.7 µM (inactive)	22.1 µM (inactive)	71.4 µM (inactive)	60.5 µM (inactive)	> 100 µM (inactive)	> 100 µM (inactive)	58.1 µM (inactive)		> 100 µM (inactive)	47.6 µM (inactive)
c1ccc2c(c1)OC(N1CCCC1)c1cnc(N3CCCC3)nc1-2 (stereo unspecified)	43.4 µM (inactive)	40.6 µM (inactive)	23.8 µM (inactive)	31.3 µM (inactive)	49.9 µM (inactive)	19.4 µM (inactive)	36.2 µM (inactive)		76 µM (inactive)	51.3 µM (inactive)	29.4 µM (inactive)		22.5 µM (inactive)	45.9 µM (inactive)	50.7 µM (inactive)	54.2 µM (inactive)	36.7 µM (inactive)	28.7 µM (inactive)	20.3 µM (inactive)	36.3 µM (inactive)
CC(C)C1=CC23CCC4C(C)(C(=O)O)CCCC4(C)C2CC1C1C(=O)N(c2cccc(N4C(=O)C5C6CC7C8(C)CCCC(C)(C(=O)O)C8CCC7(C=C6C(C)C)C5C4=O)c2)C(=O)C13 (stereo unspecified)	14.7 µM (inactive)	13.4 µM (inactive)	6.31 µM (inactive)	10.6 µM (inactive)	10.8 µM (inactive)	6.46 µM (inactive)	3.84 µM (inactive)		7.74 µM (inactive)	8.61 µM (inactive)	12 µM (inactive)	15.7 µM (inactive)	16.8 µM (inactive)	3.24 µM (inactive)	16.5 µM (inactive)	16.6 µM (inactive)		4.66 µM (inactive)	12.6 µM (inactive)	16.3 µM (inactive)
O=C1CSC(=S)N1c1ccco1	> 100 µM (inactive)	> 100 µM (inactive)	> 100 µM (inactive)	79.4 µM (inactive)	> 100 µM (inactive)	> 100 µM (inactive)	> 100 µM (inactive)	37.9 µM (inactive)	> 100 µM (inactive)	56.5 µM (inactive)	> 100 µM (inactive)	46.7 µM (inactive)		> 100 µM (inactive)		> 100 µM (inactive)	> 100 µM (inactive)	71.3 µM (inactive)	> 100 µM (inactive)	41.1 µM (inactive)
CCOC(=O)c1ccc(C)c(/N=N/N(C)C)c1	> 100 µM (inactive)	> 100 µM (inactive)	> 100 µM (inactive)	> 100 µM (inactive)		> 100 µM (inactive)	> 100 µM (inactive)		> 100 µM (inactive)	> 100 µM (inactive)	82.8 µM (inactive)	> 100 µM (inactive)		> 100 µM (inactive)	> 100 µM (inactive)	> 100 µM (inactive)	> 100 µM (inactive)		> 100 µM (inactive)	> 100 µM (inactive)
Cc1ccc(Cc2n[nH]c(=O)n2Nc2ccccc2)cc1	> 100 µM (inactive)	> 100 µM (inactive)	> 100 µM (inactive)	> 100 µM (inactive)	> 100 µM (inactive)	81.5 µM (inactive)	> 100 µM (inactive)	> 100 µM (inactive)	> 100 µM (inactive)	> 100 µM (inactive)	> 100 µM (inactive)	> 100 µM (inactive)	89.9 µM (inactive)	> 100 µM (inactive)	> 100 µM (inactive)	> 100 µM (inactive)	> 100 µM (inactive)			> 100 µM (inactive)
O=C1CC(O)C=C1Nc1ccc(Cl)cc1 (stereo unspecified)	5.81 µM (inactive)	6.98 µM (inactive)	11.4 µM (inactive)	9.95 µM (inactive)		27.7 µM (inactive)	13.7 µM (inactive)		90.8 µM (inactive)	49.2 µM (inactive)	62.4 µM (inactive)	29.6 µM (inactive)		49.3 µM (inactive)	0.879 µM (active)	> 100 µM (inactive)	23.1 µM (inactive)		40.5 µM (inactive)	34.1 µM (inactive)
CCc1cccc(NC(=O)c2cc(/C=C/c3ccccc3)nc(S)n2)c1	> 100 µM (inactive)	> 100 µM (inactive)	> 100 µM (inactive)	> 100 µM (inactive)		> 100 µM (inactive)	> 100 µM (inactive)		> 100 µM (inactive)	> 100 µM (inactive)	> 100 µM (inactive)	> 100 µM (inactive)		> 100 µM (inactive)	> 100 µM (inactive)	> 100 µM (inactive)	> 100 µM (inactive)		> 100 µM (inactive)	> 100 µM (inactive)
